Where only a bound is given, the exact number is not on record here.

For the first assay, the target named is T1, human CYP11B2 (Homo sapiens, UniProt P19099).
T1 construct: expressed in transfected cells; host or cells: V79 Chinese hamster cells
T1 sequence (P19099 25-503): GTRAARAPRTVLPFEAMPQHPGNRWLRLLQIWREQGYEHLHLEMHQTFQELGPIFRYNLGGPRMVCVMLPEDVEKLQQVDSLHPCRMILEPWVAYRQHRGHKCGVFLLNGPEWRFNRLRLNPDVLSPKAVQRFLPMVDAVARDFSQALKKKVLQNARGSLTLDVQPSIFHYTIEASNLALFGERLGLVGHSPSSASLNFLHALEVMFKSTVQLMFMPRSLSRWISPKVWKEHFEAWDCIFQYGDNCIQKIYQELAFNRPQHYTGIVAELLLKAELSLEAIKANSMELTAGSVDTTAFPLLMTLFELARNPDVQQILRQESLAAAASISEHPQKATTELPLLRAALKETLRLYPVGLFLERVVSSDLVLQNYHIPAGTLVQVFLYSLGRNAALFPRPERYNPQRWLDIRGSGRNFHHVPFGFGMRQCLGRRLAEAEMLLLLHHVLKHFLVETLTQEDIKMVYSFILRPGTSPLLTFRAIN
Put plainly: Aldosterone inhibitory activity in V79 cells expressing human CYP11B2. Conditions: V79 Chinese hamster cells stably transfected with human CYP11B2; substrate 11-deoxycorticosterone 100 nM; read-out: IC50, inhibition of the production of aldosterone. The class given is cell-based. As to the method: For the determination of aldosterone inhibitory activity, tests were carried out using V79 Chinese hamster cells stably transfected with human CYP11B2 or CYP11B1 and using assay protocols as described in Ehmer P B, Bureik M, Bernhardt R, Muller U, Hartmann R W. Development of a test system for inhibitors of human aldosterone synthase (CYP11B2): screening in fission yeast and evaluation of selectivity in V79 cells. J. Steroid Biochem. Mol. Biol. 2002 June; 81(2):173-9. The concentration of the substrate 11-deoxycorticosterone in the assay was 100 nM.
With `CC(C)Oc1ccncc1C(O)(c1nc2cccc(Br)c2s1)C(C)C` (centres unmarked) [Example 36, 1-(7-bromobenzo[d]thiazol-2-yl)-1-(4-isopropoxypyridin-3-yl)-2-methylpropan-1-ol], the IC50 was under 1000 nM.

Regarding `CCCC(O)(c1cncc(OC)c1)c1nc2ccc(F)cc2s1` (centres unmarked) [Example 20, 1-(6-fluorobenzo[d]thiazol-2-yl)-1-(5-methoxypyridin-3-yl)butan-1-ol], the IC50 was under 1000 nM.

As for `CCCC(O)(c1nc2ccc(C#N)cc2s1)c1cnccc1OCC` (centres unmarked) [Example 72, 1-(6-cyanobenzo[d]thiazol-2-yl)-1-(4-ethoxypyridin-3-yl)butan-1-ol], the IC50 was under 1000 nM.

For the molecule `COc1ccncc1C(O)(c1nc2ccc(Br)cc2s1)C(C)C` (centres unmarked) [Example 25, 1-(6-bromobenzo[d]thiazol-2-yl)-1-(4-methoxypyridin-3-yl)-2-methylpropan-1-ol], the IC50 is under 1000 nM.

In the case of `CCCC(O)(c1nc2ccc(Br)cc2s1)c1cnccc1C(C)C` (centres unmarked) [Example 37, 1-(6-bromobenzo[d]thiazol-2-yl)-1-(4-isopropylpyridin-3-yl)butan-1-ol], the 50% inhibitory concentration (IC50) is under 1000 nM.

For `CC(C)Oc1ccncc1C(O)(c1nc2ccc(Br)cc2s1)C(C)C` (centres unmarked) [Example 35, 1-(6-bromobenzo[d]thiazol-2-yl)-1-(4-isopropoxypyridin-3-yl)-2-methylpropan-1-ol], the IC50 was under 1000 nM.

With `COc1ccncc1C(O)(c1nc2ccccc2s1)C(C)(C)C` (centres unmarked) [Example 31, 1-(benzo[d]thiazol-2-yl)-1-(4-methoxypyridin-3-yl)-2,2-dimethylpropan-1-ol], the IC50 is under 1000 nM.

Regarding `CC(C)c1ccncc1C(O)(c1nc2ccc(Br)cc2s1)C(C)C` (centres unmarked) [Example 33, 1-(6-bromobenzo[d]thiazol-2-yl)-1-(4-isopropylpyridin-3-yl)-2-methylpropan-1-ol], the IC50 is under 1000 nM.

In the case of `CCCC(O)(c1nc2ccc(C(F)(F)F)cc2s1)c1cnccc1OCC` (centres unmarked) [Example 45, 1-(4-ethoxypyridin-3-yl)-1-(6-(trifluoromethyl)benzo[d]thiazol-2-yl)butan-1-ol], the IC50 was under 1000 nM.

With `COc1ccncc1C(O)c1nc2ccc(Br)cc2s1` (centres unmarked) [Example 26, (6-bromobenzo[d]thiazol-2-yl)(4-methoxypyridin-3-yl)methanol], the IC50 is under 1000 nM.

In the next assay the target is T2, aldosterone synthase (Homo sapiens, UniProt P19099).
T2 construct: host or cells: H295R human adrenocortical carcinoma cells
T2 sequence (P19099 25-503): T1 sequence (P19099 25-503)
Put plainly: Ang-II stimulated aldosterone production in H295R cells (ELISA). The class given is cell-based. Conditions: Ang-II stimulated. On the technique in general: ELISA stands for enzyme-linked immunosorbent assay.
Protocol: To test the activity of compounds in a cell-based assay, a well-established assay described in the literature was used [Muller-Vieira U, Angotti M, Hartmann R W. The adrenocortical tumor cell line NCI-H295R as an in vitro screening system for the evaluation of CYP11B2 (aldosterone synthase) and CYP11B1 (steroid-11beta-hydroxylase) inhibitors. […] In brief, human adrenocortical carcinoma cells (H295R; ATCC CRL-2128) were plated in 96-well plates and the effect of compounds on angiotensin-II (Ang-II) stimulated aldosterone production was determined in the supernatant using an ELISA kit (Genway 40-521-475012). […] Compounds were tested in the aldosterone production assay at various concentrations and from dose-response inhibition curves the % inhibition at specific concentrations and the IC50 were calculated.
Take `CCOC(=O)c1cncn1[C@H](C)c1ccccc1` [etomidate]: the “Ang-II stimulated aldosterone production” value is listed as “significantly inhibited”.

Consider `CC(=O)N1CCN(c2ccc(OCC3COC(Cn4ccnc4)(c4ccc(Cl)cc4Cl)O3)cc2)CC1` (centres unmarked) [ketoconazole], for which the “Ang-II stimulated aldosterone production” value is given as “significantly inhibited”.

The assay is the same for the next values; noted with them: basal.
With `CCOC(=O)c1cncn1[C@H](C)c1ccccc1` [etomidate], the basal aldosterone production entry is listed as “significantly inhibited”.

In the case of `CC(=O)N1CCN(c2ccc(OCC3COC(Cn4ccnc4)(c4ccc(Cl)cc4Cl)O3)cc2)CC1` (centres unmarked) [ketoconazole], the basal aldosterone production result is reported as “significantly inhibited”.

By IC50 is commonly meant the concentration that gives 50% inhibition.

For the origin of these results see patent US11434234B2, “Methods and agents for treating disease” (ANGION BIOMEDICA CORP., priority 2014, dated 2022).
